Source: patent US6352958B1, “Cycloimido-substituted benzofused heterocyclic herbicides” (FMC Corporation, priority 1997, dated 2002)

How the values were obtained:
Type in all cases: in vivo
[1] = test system: soybean (Glycine max var. Winchester); test: Preemergence herbicidal activity, soybean; conditions: Rate of Application 0.3 Kg/Ha, examined after 12-17 days
[2] = test system: wheat (Triticum aestivum var. Lew); test: Preemergence herbicidal activity, wheat; conditions: Rate of Application 0.3 Kg/Ha, examined after 12-17 days
[3] = test system: field corn (Zea mays var. Pioneer 3732); test: Preemergence herbicidal activity, corn; conditions: Rate of Application 0.3 Kg/Ha, examined after 12-17 days
[4] = test system: velvetleaf (Abutilon theophrasti); test: Preemergence herbicidal activity, velvetleaf; conditions: Rate of Application 0.3 Kg/Ha, examined after 12-17 days
[5] = test system: morningglory (Ipomea lacunosa or Ipomea hederacea); test: Preemergence herbicidal activity, morningglory; conditions: Rate of Application 0.3 Kg/Ha, examined after 12-17 days
[6] = test system: common chickweed (Stellaria media); test: Preemergence herbicidal activity, chickweed; conditions: Rate of Application 0.3 Kg/Ha, examined after 12-17 days
[7] = test system: common cocklebur (Xanthium strumarium L.); test: Preemergence herbicidal activity, cocklebur; conditions: Rate of Application 0.3 Kg/Ha, examined after 12-17 days
[8] = test system: blackgrass (Aloepecurus myosuroides); test: Preemergence herbicidal activity, blackgrass; conditions: Rate of Application 0.3 Kg/Ha, examined after 12-17 days
[9] = test system: green foxtail (Setaria viridis); test: Preemergence herbicidal activity, green foxtail; conditions: Rate of Application 0.3 Kg/Ha, examined after 12-17 days
[10] = test system: Johnsongrass (Sorghum halepense); test: Preemergence herbicidal activity, johnsongrass; conditions: Rate of Application 0.3 Kg/Ha, examined after 12-17 days
[11] = test system: soybean (Glycine max var. Winchester); test: Postemergence herbicidal activity, soybean; conditions: rate of application 0.3 Kg/Ha, rated after 12-17 days
[12] = test system: wheat (Triticum aestivum var. Lew); test: Postemergence herbicidal activity, wheat; conditions: rate of application 0.3 Kg/Ha, rated after 12-17 days
[13] = test system: field corn (Zea mays var. Pioneer 3732); test: Postemergence herbicidal activity, corn; conditions: rate of application 0.3 Kg/Ha, rated after 12-17 days
[14] = test system: velvetleaf (Abutilon theophrasti); test: Postemergence herbicidal activity, velvetleaf; conditions: rate of application 0.3 Kg/Ha, rated after 12-17 days
[15] = test system: morningglory (Ipomea lacunosa or Ipomea hederacea); test: Postemergence herbicidal activity, morningglory; conditions: rate of application 0.3 Kg/Ha, rated after 12-17 days
[16] = test system: common cocklebur (Xanthium strumarium L.); test: Postemergence herbicidal activity, cocklebur; conditions: rate of application 0.3 Kg/Ha, rated after 12-17 days
[17] = test system: blackgrass (Aloepecurus myosuroides); test: Postemergence herbicidal activity, blackgrass; conditions: rate of application 0.3 Kg/Ha, rated after 12-17 days
[18] = test system: green foxtail (Setaria viridis); test: Postemergence herbicidal activity, green foxtail; conditions: rate of application 0.3 Kg/Ha, rated after 12-17 days
[19] = test system: Johnsongrass (Sorghum halepense); test: Postemergence herbicidal activity, johnsongrass; conditions: rate of application 0.3 Kg/Ha, rated after 12-17 days

## COc1nc2c(-n3c(=O)cc(C(F)(F)F)n(C)c3=O)c(F)cc(Br)c2o1 [Compound 109, 1-METHYL-6-TRIFLUOROMETHYL-3-(7-BROMO-5-FLUORO-2-METHOXYBENZOXAZOL-4-YL)-2,4(1H,3H)-PYRIMIDINEDIONE]
[1]; Glycine max, pre-emergence, read-out: PREEMERGENCE HERBICIDAL ACTIVITY (% CONTROL) SOY
  inhibition at 300 g/ha: 100%
[2]; Triticum aestivum, pre-emergence, read-out: PREEMERGENCE HERBICIDAL ACTIVITY (% CONTROL) WHT
  inhibition at 300 g/ha: 100%
[3]; Zea mays, pre-emergence, read-out: PREEMERGENCE HERBICIDAL ACTIVITY (% CONTROL) CRN
  inhibition at 300 g/ha: 90%
[4]; Abutilon theophrasti, pre-emergence, read-out: PREEMERGENCE HERBICIDAL ACTIVITY (% CONTROL) ABUTH
  inhibition at 300 g/ha: 100%
[5]; Ipomoea, pre-emergence, read-out: PREEMERGENCE HERBICIDAL ACTIVITY (% CONTROL) IPOSS
  inhibition at 300 g/ha: 100%
[6]; Stellaria media, pre-emergence, read-out: PREEMERGENCE HERBICIDAL ACTIVITY (% CONTROL) STEME
  inhibition at 300 g/ha: 100%
[7]; Xanthium strumarium, pre-emergence, read-out: PREEMERGENCE HERBICIDAL ACTIVITY (% CONTROL) XANPE
  inhibition at 300 g/ha: 100%
[8]; Alopecurus myosuroides, pre-emergence, read-out: PREEMERGENCE HERBICIDAL ACTIVITY (% CONTROL) ALOMY
  inhibition at 300 g/ha: 100%
[9]; Setaria viridis, pre-emergence, read-out: PREEMERGENCE HERBICIDAL ACTIVITY (% CONTROL) SETVI
  inhibition at 300 g/ha: 100%
[10]; Sorghum halepense, pre-emergence, read-out: PREEMERGENCE HERBICIDAL ACTIVITY (% CONTROL) SORHA
  inhibition at 300 g/ha: 100%
[11]; Glycine max, post-emergence, read-out: Postemergence herbicidal activity (% control) SOY
  inhibition at 300 g/ha: 90%
[12]; Triticum aestivum, post-emergence, read-out: Postemergence herbicidal activity (% control) WHT
  inhibition at 300 g/ha: 90%
[13]; Zea mays, post-emergence, read-out: Postemergence herbicidal activity (% control) CRN
  inhibition at 300 g/ha: 80%
[14]; Abutilon theophrasti, post-emergence, read-out: Postemergence herbicidal activity (% control) ABUTH
  inhibition at 300 g/ha: 100%
[15]; Ipomoea, post-emergence, read-out: Postemergence herbicidal activity (% control) IPOSS
  inhibition at 300 g/ha: 100%
[16]; Xanthium strumarium, post-emergence, read-out: Postemergence herbicidal activity (% control) XANPE
  inhibition at 300 g/ha: 100%
[17]; Alopecurus myosuroides, post-emergence, read-out: Postemergence herbicidal activity (% control) ALOMY
  inhibition at 300 g/ha: 90%
[18]; Setaria viridis, post-emergence, read-out: Postemergence herbicidal activity (% control) SETVI
  inhibition at 300 g/ha: 100%
[19]; Sorghum halepense, post-emergence, read-out: Postemergence herbicidal activity (% control) SORHA
  inhibition at 300 g/ha: 90%

## C=CCOc1nc2c(-n3c(=O)cc(C(F)(F)F)n(C)c3=O)c(F)cc(Br)c2o1 [Compound 110]
[1]
  PREEMERGENCE HERBICIDAL ACTIVITY (% CONTROL) SOY: 100%
[2]
  PREEMERGENCE HERBICIDAL ACTIVITY (% CONTROL) WHT: 50%
[3]
  PREEMERGENCE HERBICIDAL ACTIVITY (% CONTROL) CRN: 70%
[4]
  PREEMERGENCE HERBICIDAL ACTIVITY (% CONTROL) ABUTH: 100%
[5]
  PREEMERGENCE HERBICIDAL ACTIVITY (% CONTROL) IPOSS: 90%
[6]
  PREEMERGENCE HERBICIDAL ACTIVITY (% CONTROL) STEME: 100%
[7]
  PREEMERGENCE HERBICIDAL ACTIVITY (% CONTROL) XANPE: 40%
[8]
  PREEMERGENCE HERBICIDAL ACTIVITY (% CONTROL) ALOMY: 80%
[9]
  PREEMERGENCE HERBICIDAL ACTIVITY (% CONTROL) SETVI: 100%
[10]
  PREEMERGENCE HERBICIDAL ACTIVITY (% CONTROL) SORHA: 100%
[11]
  Postemergence herbicidal activity (% control) SOY: 80%
[12]
  Postemergence herbicidal activity (% control) WHT: 40%
[13]
  Postemergence herbicidal activity (% control) CRN: 50%
[14]
  Postemergence herbicidal activity (% control) ABUTH: 100%
[15]
  Postemergence herbicidal activity (% control) IPOSS: 100%
[16]
  Postemergence herbicidal activity (% control) XANPE: 100%
[17]
  Postemergence herbicidal activity (% control) ALOMY: 70%
[18]
  Postemergence herbicidal activity (% control) SETVI: 80%
[19]
  Postemergence herbicidal activity (% control) SORHA: 70%

## Cn1c(C(F)(F)F)cc(=O)n(-c2c(F)cc(Cl)c3cc(CCF)oc23)c1=O [Compound 237]
[1]
  PREEMERGENCE HERBICIDAL ACTIVITY (% CONTROL) SOY: 100%
[2]
  PREEMERGENCE HERBICIDAL ACTIVITY (% CONTROL) WHT: 90%
[3]
  PREEMERGENCE HERBICIDAL ACTIVITY (% CONTROL) CRN: 90%
[4]
  PREEMERGENCE HERBICIDAL ACTIVITY (% CONTROL) ABUTH: 100%
[5]
  PREEMERGENCE HERBICIDAL ACTIVITY (% CONTROL) IPOSS: 100%
[6]
  PREEMERGENCE HERBICIDAL ACTIVITY (% CONTROL) STEME: 100%
[7]
  PREEMERGENCE HERBICIDAL ACTIVITY (% CONTROL) XANPE: 100%
[8]
  PREEMERGENCE HERBICIDAL ACTIVITY (% CONTROL) ALOMY: 100%
[9]
  PREEMERGENCE HERBICIDAL ACTIVITY (% CONTROL) SETVI: 100%
[10]
  PREEMERGENCE HERBICIDAL ACTIVITY (% CONTROL) SORHA: 100%
[11]
  Postemergence herbicidal activity (% control) SOY: 100%
[12]
  Postemergence herbicidal activity (% control) WHT: 95%
[13]
  Postemergence herbicidal activity (% control) CRN: 100%
[14]
  Postemergence herbicidal activity (% control) ABUTH: 100%
[15]
  Postemergence herbicidal activity (% control) IPOSS: 100%
[16]
  Postemergence herbicidal activity (% control) XANPE: 100%
[17]
  Postemergence herbicidal activity (% control) ALOMY: 100%
[18]
  Postemergence herbicidal activity (% control) SETVI: 100%
[19]
  Postemergence herbicidal activity (% control) SORHA: 100%

## Cn1c(C(F)(F)F)cc(=O)n(-c2ccc(Cl)c3cc(CO)oc23)c1=O [Compound 238]
[1]
  PREEMERGENCE HERBICIDAL ACTIVITY (% CONTROL) SOY: 100%
[2]
  PREEMERGENCE HERBICIDAL ACTIVITY (% CONTROL) WHT: 60%
[3]
  PREEMERGENCE HERBICIDAL ACTIVITY (% CONTROL) CRN: 70%
[4]
  PREEMERGENCE HERBICIDAL ACTIVITY (% CONTROL) ABUTH: 100%
[5]
  PREEMERGENCE HERBICIDAL ACTIVITY (% CONTROL) IPOSS: 100%
[6]
  PREEMERGENCE HERBICIDAL ACTIVITY (% CONTROL) STEME: 60%
[7]
  PREEMERGENCE HERBICIDAL ACTIVITY (% CONTROL) XANPE: 80%
[8]
  PREEMERGENCE HERBICIDAL ACTIVITY (% CONTROL) ALOMY: 50%
[9]
  PREEMERGENCE HERBICIDAL ACTIVITY (% CONTROL) SETVI: 90%
[10]
  PREEMERGENCE HERBICIDAL ACTIVITY (% CONTROL) SORHA: 90%
[11]
  Postemergence herbicidal activity (% control) SOY: 80%
[12]
  Postemergence herbicidal activity (% control) WHT: 30%
[13]
  Postemergence herbicidal activity (% control) CRN: 70%
[14]
  Postemergence herbicidal activity (% control) ABUTH: 100%
[15]
  Postemergence herbicidal activity (% control) IPOSS: 100%
[16]
  Postemergence herbicidal activity (% control) XANPE: 100%
[17]
  Postemergence herbicidal activity (% control) ALOMY: 40%
[18]
  Postemergence herbicidal activity (% control) SETVI: 80%
[19]
  Postemergence herbicidal activity (% control) SORHA: 70%

## Cn1c(C(F)(F)F)cc(=O)n(-c2c(F)cc(Cl)c3cc(C(C)(C)N)oc23)c1=O [Compound 254]
[1]
  PREEMERGENCE HERBICIDAL ACTIVITY (% CONTROL) SOY: 25%
[2]
  PREEMERGENCE HERBICIDAL ACTIVITY (% CONTROL) WHT: 20%
[3]
  PREEMERGENCE HERBICIDAL ACTIVITY (% CONTROL) CRN: 80%
[4]
  PREEMERGENCE HERBICIDAL ACTIVITY (% CONTROL) ABUTH: 100%
[5]
  PREEMERGENCE HERBICIDAL ACTIVITY (% CONTROL) IPOSS: 50%
[6]
  PREEMERGENCE HERBICIDAL ACTIVITY (% CONTROL) STEME: 30%
[7]
  PREEMERGENCE HERBICIDAL ACTIVITY (% CONTROL) XANPE: 50%
[8]
  PREEMERGENCE HERBICIDAL ACTIVITY (% CONTROL) ALOMY: 60%
[9]
  PREEMERGENCE HERBICIDAL ACTIVITY (% CONTROL) SETVI: 100%
[10]
  PREEMERGENCE HERBICIDAL ACTIVITY (% CONTROL) SORHA: 80%
[11]
  Postemergence herbicidal activity (% control) SOY: 95%
[12]
  Postemergence herbicidal activity (% control) WHT: 40%
[13]
  Postemergence herbicidal activity (% control) CRN: 80%
[14]
  Postemergence herbicidal activity (% control) ABUTH: 100%
[15]
  Postemergence herbicidal activity (% control) IPOSS: 70%
[16]
  Postemergence herbicidal activity (% control) XANPE: 95%
[17]
  Postemergence herbicidal activity (% control) ALOMY: 50%
[18]
  Postemergence herbicidal activity (% control) SETVI: 100%
[19]
  Postemergence herbicidal activity (% control) SORHA: 80%
